Assay results published in US20160206592A1, “METHOD FOR TREATING AMYOTROPHIC LATERAL SCLEROSIS BY INHIBITION OF CXCR4/CXCL12 SIGNALING” (RAMOT AT TEL-AVIV UNIVERSITY LTD., priority 2013, published 2016).
Like-named read-outs stand apart in the source and are kept apart here.

Key:
activated microglia = settings: female SODG93A mice, 5 mg/kg s.c. twice a week from 50 days old, sacrificed at 110 days old
Experimental: 50 days old female SODG93A mice were s.c injected with 5 mg/kg AMD3100 twice a week. On 110 days old mice were sacrificed and analyzed using western blot for inflammatory markers of activated microglia. FIG. 7A. is cd36 levels. FIG. 7B. is Iba-1 levels.
Loss of upper and lower MNs results in progressive muscle paralysis and ultimately death due to respiratory failure. Although initially thought to derive from the selective loss of MNs, the pathogenic concept of non-cell autonomous disease has come to the fore front for the contribution of glial cells in ALS, in particular microglia. […] Conversely, activated microglia contributes and enhances MN death by secreting neurotoxic factors, and impaired microglial function at the end-stage may instead accelerate disease progression. However, the nature of microglial-neuronal interactions that lead to MN degeneration remains elusive.

[1] = test system: SOD1-G93A female and male mice
Experimental: FIGS. 4A-4C are graphs showing survival (Kaplan-Meier curves; P-value=0.0001) of SOD1-G93A female and male mice subcutaneously treated with either 5 mg/kg AMD3100 or PBS, starting at 50 days old; N=29 (AMD3100), N=16 (PBS).

[2] = test system: NSC-34 cells stably transfected with mutant SOD1; settings: 25 ug AMD3100, astrocytes from newborn SODG93A mice incubated 24 h, compared to other concentrations
Experimental: Primary astrocytes from 3 days old newborn SODG93A mice were incubated AMD3100 for 24 h. Media of treated astrocytes was then added to NSC-34 cells stably transfected with mutant SOD1.

transgenic G93A mice = settings: G93A female mice, s.c. once and twice a week
Text: Six mice received AMD3100 once a week, eight mice received AMD3100 twice a week, and seven mice received PBS once a week.
For this purpose, the present inventors treated G93A female mice subcutaneously with either AMD3100 or PBS, starting at 70 days old. Six mice received AMD3100 once a week, eight mice received AMD3100 twice a week, and seven mice received PBS once a week.

[3] = test system: ZO-1, claudin 5, Occludin; settings: female SODG93A mice, 5 mg/kg s.c. twice a week from 50 days old, sacrificed at 110 days old
Experimental: FIGS. 9A-9C show Blood-CNS-Barrier markers levels following AMD3100 treatment. 50 days old female SODG93A mice were s.c injected with 5 mg/kg AMD3100 twice a week. On 110 days old mice were sacrificed and analyzed for B-CNS-B markers using western blot.
Endothelial cells play an important role in B-CNS-B function. B-CNS-B dysfunction is recognized to participate in neurodegenerative disorders. […] TJPs such as ZO-1, occludin and the claudin family exist in cerebral vascular endothelial cells, which are the most crucial factors modulating barrier integrity. […] The expression of TJPs has been reported to contribute to barrier function. ZO-1 and claudin-5 are the most important components for cell barrier integrity. Claudin-5 can greatly reduce dextran permeability and improve transendothelial electrical resistance and plays an essential role in the earliest stage of CNS angiogenesis. ZO-1 serves as a bridge between transmembrane proteins and skeleton proteins, and this interaction is important to the stability and function of endothelial barrier. […] All these three proteins are known to be reduced by 40%-60% in both animal models of ALS and humans, even prior to disease onset (Zhong et al., 2008).

[4] = females only, 5 mg/kg twice a week
[5] = males and females together, 5 mg/kg s.c., starting at 50 days old
[6] = males only, 5 mg/kg twice a week

SMILES: c1cc(CN2CCCNCCNCCCNCC2)ccc1CN1CCCNCCNCCCNCC1 [AMD3100, 1,1′-[1,4-Phenylenebis(methylene)]bis-1,4,8,11-tetraazacyclotetradecane]
- Iba-1 levels (activated microglia): significant reduction
- cd36 levels (activated microglia): significant reduction
- mean survival [1, 4]: 146 days
- median survival [1, 4]: 144 days
- survival (versus PBS) [1, 4]: 14 days
- mean survival [1, 5]: 144 days
- median survival [1, 5]: 143 days
- survival according to Kaplan-Meier curve (versus PBS) [1, 5]: 12 days
- mean survival [1, 6]: 141 days
- median survival [1, 6]: 139 days
- survival (versus PBS) [1, 6]: 8 days
- survival of motor neuron like cells [2]: increased the survival
- extension of survival compared with control (PBS) mice (transgenic G93A mice): about 14 days
- age at death (transgenic G93A mice; starting at 70 days old): ~170 days old
- Occludin levels [3]: effective in restoring the expression
- ZO-1 levels [3]: effective in restoring the expression
- claudin 5 levels [3]: effective in restoring the expression
